Reference: patent US10294219B2 (priority 2015, dated 2019)
Where two headings read alike, the source gives them in different places.

Columns and labels:
[1] = data from US20130324496A1, cited from earlier work
[2] = Changes of crystal form at different temperatures; assay type: physicochemical
[3] = Solvent-based screening of crystal form changes; assay type: physicochemical
[4] = Light stability assessment (LS-3000 light test chamber, HPLC purity after illumination); assay type: physicochemical; settings: 1.2 million lux·hours of illumination, 4400 lux for 12 days, layer no more than 1 mm
Text: Samples of different crystal forms were placed in a watch glass and spread to a thin layer with thickness of no more than 1 mm, placed in a LS-3000 light test chamber with a light intensity of 4400 lux for 12 days.
(2) The purity of the sample after illumination was checked by HPLC and compared with the initial purity.

[5] = 100 mg suspended in 200 μL Ethyl acetate
[6] = 100 mg suspended in 200 μL MTBE

Structure (SMILES): COC(=O)N[C@H](C(=O)N1CC2(CC2)C[C@H]1c1ncc(-c2ccc3c(c2)C(F)(F)c2cc(-c4ccc5nc([C@@H]6[C@H]7CC[C@H](C7)N6C(=O)[C@@H](NC(=O)OC)C(C)C)[nH]c5c4)ccc2-3)[nH]1)C(C)C [Ledipasvir amorphous, Ledipasvir]
- HPLC purity decreased, % ([1]; 1.2 million lux·hours): 8.3%

Structure (SMILES): COC(=O)N[C@H](C(=O)N1CC2(CC2)C[C@H]1c1ncc(-c2ccc3c(c2)C(F)(F)c2cc(-c4ccc5nc([C@@H]6[C@H]7CC[C@H](C7)N6C(=O)[C@@H](NC(=O)OC)C(C)C)[nH]c5c4)ccc2-3)[nH]1)C(C)C [Ledipasvir diacetone solvate]
- HPLC purity decreased, % ([1]; 1.2 million lux·hours): 6.3%

Structure (SMILES): COC(=O)N[C@H](C(=O)N1CC2(CC2)C[C@H]1c1ncc(-c2ccc3c(c2)C(F)(F)c2cc(-c4ccc5nc([C@@H]6[C@H]7CC[C@H](C7)N6C(=O)[C@@H](NC(=O)OC)C(C)C)[nH]c5c4)ccc2-3)[nH]1)C(C)C [crystal form A of Ledipasvir, LDV-acetonitrile-MTBE ternary solvate]
- Crystal Form ([2]; 120° C., nitrogen protection): crystal form C
- Crystal Form ([2]; 120° C., nitrogen protection, listed as crystal form A): crystal form C
- Crystal Form ([2]; 180° C., nitrogen protection): amorphous form
- Crystal Form ([2]; Room temperature): crystal form A
- Solvent-based screening result (change of crystal form) ([3]; 100 mg suspended in 200 μL ACN): crystal form D
- Solvent-based screening result (change of crystal form) [3, 5]: solution
- Solvent-based screening result (change of crystal form) [3, 6]: amorphous form
- HPLC purity decreased, % [4]: 2.0%
- HPLC purity decreased, % ([4]; listed as LDV-acetonitrile-MTBE ternary solvate): 2.0%
- HPLC purity decreased, % ([4]; listed as Ledipasvir crystal form A): 2.0%

Structure (SMILES): COC(=O)N[C@H](C(=O)N1CC2(CC2)C[C@H]1c1ncc(-c2ccc3c(c2)C(F)(F)c2cc(-c4ccc5nc([C@@H]6[C@H]7CC[C@H](C7)N6C(=O)[C@@H](NC(=O)OC)C(C)C)[nH]c5c4)ccc2-3)[nH]1)C(C)C [crystal form B of Ledipasvir, LDV-acetone-MTBE ternary solvate]
- Crystal Form ([2]; 120° C., nitrogen protection): crystal form E
- Crystal Form ([2]; 120° C., nitrogen protection, listed as crystal form B): crystal form E
- Crystal Form ([2]; 180° C., nitrogen protection): amorphous form
- Crystal Form ([2]; Room temperature): crystal form B
- Solvent-based screening result (change of crystal form) ([3]; 100 mg suspended in 200 μL ACN): crystal form D
- Solvent-based screening result (change of crystal form) [3, 5]: solution
- Solvent-based screening result (change of crystal form) [3, 6]: amorphous form
- HPLC purity decreased, % [4]: 0.6%
- HPLC purity decreased, % ([4]; listed as LDV-acetone-MTBE ternary solvate): 0.6%
- HPLC purity decreased, % ([4]; listed as Ledipasvir crystal form B): 0.6%

Structure (SMILES): COC(=O)N[C@H](C(=O)N1CC2(CC2)C[C@H]1c1ncc(-c2ccc3c(c2)C(F)(F)c2cc(-c4ccc5nc([C@@H]6[C@H]7CC[C@H](C7)N6C(=O)[C@@H](NC(=O)OC)C(C)C)[nH]c5c4)ccc2-3)[nH]1)C(C)C [crystal form I of Ledipasvir]
- HPLC purity decreased, % ([1]; 900,000 lux·hours): 6.6%

Structure (SMILES): COC(=O)N[C@H](C(=O)N1CC2(CC2)C[C@H]1c1ncc(-c2ccc3c(c2)C(F)(F)c2cc(-c4ccc5nc([C@@H]6[C@H]7CC[C@H](C7)N6C(=O)[C@@H](NC(=O)OC)C(C)C)[nH]c5c4)ccc2-3)[nH]1)C(C)C [crystal form II of Ledipasvir]
- HPLC purity decreased, % ([1]; 1.2 million lux·hours): 6.3%

Structure (SMILES): COC(=O)N[C@H](C(=O)N1CC2(CC2)C[C@H]1c1ncc(-c2ccc3c(c2)C(F)(F)c2cc(-c4ccc5nc([C@@H]6[C@H]7CC[C@H](C7)N6C(=O)[C@@H](NC(=O)OC)C(C)C)[nH]c5c4)ccc2-3)[nH]1)C(C)C [monoacetone solvate]
- HPLC purity decreased, % ([1]; 1.2 million lux·hours): 6.3%
